Patent US12268747B2, “Polypeptides having anti-senescent effects and uses thereof” (OneSkin, Inc., priority 2019, dated 2025)
Blank lines part the entries; values can stand above or below the compound they belong to. Peptide text beside a SMILES is read from it.

Legend:
[1] = test system: Primary fibroblasts from Progeria patients; test: Polypeptide library screen: SA-B-galactosidase senescence and cell number in Progeria fibroblasts; assay type: cell-based, human; conditions: 10 μM, 48 hours
Procedure: Primary fibroblasts isolated from Progeria patients can constitute a genetic model of early aging and cellular senescence in humans. Primary fibroblasts from Progeria patients were cultured in DMEM (Dulbecco's Modified Eagle's Medium) supplemented with 10% v.v. fetal bovine serum (FBS), and 1% v.v. of penicillin/streptomycin solution (1,000 U·mL−1). Cells were kept in a 5% CO2, 37° C. and 95% humidity atmosphere. After expansion, these cells were seeded in 96-well plates (1,000 cells per well) and, 6 hours after plating, were incubated with individual polypeptides from a proprietary library at 50 μM for 48 hours. Negative control comprised untreated cells, which received vehicle only; positive control group comprised cells incubated with 10 μM ABT-263, a senolytic compound for the same period. […] Three independent experiments including three technical replicates were performed.

[2] = test system: human primary fibroblasts isolated from 3 healthy donors, etoposide-stressed; test: Etoposide-induced senescence in fibroblasts; assay type: cell-based; conditions: etoposide 20 μM, 24 hours
Procedure: Cellular senescence may be caused by several different stimuli. In order to assess whether Peptide 14 was effective against UVB-induced and chemically-induced senescence, human primary fibroblasts isolated from 3 healthy donors were used. These cells were cultured in DMEM (Dulbecco's Modified Eagle's Medium) supplemented with 10% v.v. fetal bovine serum (FBS), and 1% v.v. of penicillin/streptomycin solution (1,000 U·mL−1). Cells were kept in a 5% CO2, 37° C. and 95% humidity atmosphere. After expansion, these cells were seeded in 96-well plates (4,000 cells per well) and, 6 hours after plating, were submitted to either etoposide (20 μM) treatment for 24 hours, or exposed twice to 0.05 J/cm^2 of UVB radiation. […] After incubation, relative cellular senescence (assessed by the activity of senescence associated β-galactosidase staining relative to untreated control) was analyzed and plotted in column graphs. ATRX foci were also assessed following ATRX immunofluorescence staining. Graphs were built using the average ATRX foci detected per nuclei. […] Data was analyzed using with either t-test or ANOVA followed by a Bonferroni post-hoc test. Statistical significance was determined as p-values equal or lower than 0.05 (FIG. 6).

[3] = test system: Primary fibroblasts from Progeria patients; test: Senescence (SA-β-galactosidase, ATRX foci) in Progeria fibroblasts, short sequences; assay type: cell-based, human; conditions: 500 nM, 5 μM, 50 μM
Procedure: Skin cells from Progeria patients were used as a model of aging because of the high levels of cellular senescence. Primary fibroblasts from Progeria patients were cultured in DMEM (Dulbecco's Modified Eagle's Medium) supplemented with 10% v.v. fetal bovine serum (FBS), and 1% v.v. of penicillin/streptomycin solution (1,000 U·mL−1). Cells cultured at 5% CO2, 37° C. and 95% humidity atmosphere. After expansion, the cells were seeded in 96-well plates (4,000 cells per well) and, 6 hours after plating, were incubated with 500 nM, 5 μM or 50 μM of polypeptide sequence LKGIL (SEQ ID NO: 6) or WLKGI (SEQ ID NO: 7). Negative control comprised untreated cells, which received vehicle only. After incubation, relative cellular senescence, which was assessed by the activity of senescence associated β-galactosidase staining relative to untreated control and by the quantification of ATRX foci/nuclei, was analyzed. Three independent experiments (biological replicates) including three technical replicates were performed. Data was analyzed using ANOVA and a Bonferroni post-hoc test. Statistical significance was determined as p values equal or lower than 0.05, where *p<0.05 and ** p<0.01.

MeWo cells [4] = test: Melanin content of MeWo cells, 7 days treatment; assay type: cell-based, human; conditions: 7 days after 14 day IBMX pre-treatment; Peptide 14 3.12 μM or retinoic acid 2 μM with 25 μM IBMX; positive control 25 μM IBMX
Procedure: (§1) To test whether Peptide 14 promotes depigmentation of melanocytes, MeWo cells were cultured in DMEM supplemented with 10% v/v FBS and 1% v/v of penicillin/streptomycin solution (1,000 U·mL^−1) at 5% CO2, 37° C. and 95% humidity. For two weeks prior to treatment with one of the experimental conditions (pre-treatment), the MeWo cells were cultured with isobutyl methylxanthine (IBMX) to stimulate melanin synthesis. After the MeWo cells were seeded in 6-well plates at 1,000,000 cells per well for 6 hours, the cells were incubated with one of the experimental conditions for 7 days and analyzed for intracellular and supernatant melanin content.
The experimental conditions included a positive control group, a negative control group, a Peptide 14 (IBMX) 7d group, and a retinoic acid (IBMX) 7d group. […]
(§2) After treatment, the melanin content in the cell pellet and the cell culture supernatant was assessed by the absorbance of the samples at 492 nm. […] Data are presented as relative melanin content, absorbance of the samples at a specified wavelength (492 nm) normalized to the absorbance of the negative control samples also as the same wavelength. […] The data were analyzed using ANOVA and Bonferroni post-hoc test when a statistical significance was detected. […]

MeWo cells [5] = test: Melanin content of MeWo cells, 14 days or interrupted on 7th day; assay type: cell-based, human
Procedure: as §1, with “The skin frequently may experience rebound hyperpigmentation, where pigmentation is reestablished in the skin after the discontinuation of the lightening treatment(s). To” for “To”, “whether the depigmentation effect of” for “whether”, “14 remained after the Peptide 14 treatment was discontinued,” for “14 promotes depigmentation of melanocytes,”, “for 14” for “for 7”
The experimental conditions included a positive control group, a negative control group, a Peptide 14 (IBMX) 14 days group, a retinoic acid (IBMX) 14 days group, a Peptide 14 (IBMX) interrupted on 7th day group, and a retinoic acid (IBMX) interrupted on 7th day group. The negative control group comprised MeWo cells which were stimulated with 25 μM IBMX for 2 weeks in the pre-treatment period and then were untreated for 14 days, receiving the vehicle only, after being plated for the experiment. The positive control group comprised MeWo cells that were incubated with 25 μM IBMX during the entire experiment, for 2 weeks in the pre-treatment period and for 14 days in the treatment period. Some of the groups were treated with both IBMX 25 μM for 7 or 14 days, as well as 3.12 μM Peptide 14, or both IBMX 25 μM (for 7 or 14 days), as well as retinoic acid 2 μM. The Peptide 14 (IBMX) 14 day group comprised MeWo cells that were incubated with 25 μM IBMX 2 weeks in the pre-treatment period and then treated for 14 days with 25 μM IBMX and 3.12 μM Peptide 14. The retinoic acid (IBMX) 14 day group comprised MeWo cells that were incubated with 25 μM IBMX 2 weeks in the pre-treatment period and then treated for 14 days with 25 μM IBMX and 2 μM retinoic acid. […]
as §2, with “to the […] absorbance of” for “to the absorbance of”

[6] = test system: Primary fibroblasts isolated from 3 healthy chronologically aged patients; test: SA-B-galactosidase senescence in fibroblasts of aged donors, concentration series; assay type: cell-based, human; conditions: 1.56-50 μM (Peptide 16: 1.56-25 μM), 48 hours; in at least one of the tested concentrations
Procedure: Primary fibroblasts isolated from 3 healthy chronologically aged patients were used. Cells were cultured in DMEM (Dulbecco's Modified Eagle's Medium) supplemented with 10% v.v. fetal bovine serum (FBS), and 1% v.v. of penicillin/streptomycin solution (1,000 U·mL−1). Cells were kept in a 5% CO2, 37° C. and 95% humidity atmosphere. After expansion, these cells were seeded in 96-well plates (4,000 cells per well) and, 6 hours after plating the cells were treated with one of 4 senotherapeutic polypeptides (Peptide 14, Peptide 13, Peptide 15, and Peptide 16) and incubated for 48 hours. Each polypeptide was tested at 6 different concentrations: 50 μM, 25 μM, 12.5 μM, 6.25 μM, 3.12 μM, and 1.56 μM, except for Peptide 16, which was tested at 5 different concentrations: 25 μM, 12.5 μM, 6.25 μM, 3.12 μM, and 1.56 μM. A negative control comprised untreated cells, which received vehicle only. After incubation, relative cellular senescence (assessed by the activity of senescence associated B-galactosidase staining relative to untreated control) was analyzed (FIG. 2, panels A-D), in which the Y axis indicates the relative senescence levels normalized to untreated control. Each column corresponds to a different concentration of a polypeptide. Three independent experiments (biological replicates) including three technical replicates were performed. Data was analyzed using Analysis of Variance (ANOVA) and a Bonferroni post-hoc tests. Statistical significance was determined as p values equal or lower than 0.05.

[7] = 7 day treatment, then 7 days 25 μM IBMX only

Compound: CC1(C)CCC(c2ccc(Cl)cc2)=C(CN2CCN(c3ccc(C(=O)NS(=O)(=O)c4ccc(N[C@H](CCN5CCOCC5)CSc5ccccc5)c(S(=O)(=O)C(F)(F)F)c4)cc3)CC2)C1 [ABT-263]
cellular toxicity (cell number) [1]: cellular toxicity | cellular senescence (SA-B-galactosidase staining) ([1]; positive control): significant reduction

Compound: COc1cc([C@@H]2c3cc4c(cc3[C@@H](O[C@@H]3O[C@@H]5CO[C@@H](C)O[C@H]5[C@H](O)[C@H]3O)[C@H]3COC(=O)[C@H]23)OCO4)cc(OC)c1O [Etoposide, etoposide]
ATRX foci nuclear accumulation (average ATRX foci/cell) [2]: significant increase | cellular senescence level [2]: significant increase

Compound: CC[C@H](C)[C@H](NC(=O)CNC(=O)[C@H](CCCCN)NC(=O)[C@@H](N)CC(C)C)C(=O)N[C@@H](CC(C)C)C(=O)O [LKGIL] (H-LKGIL-OH; N-terminus and C-terminus assumed)
cellular toxicity (relative cell number) [3]: No cellular toxicity

Compound: CC[C@H](C)[C@H](NC(=O)CNC(=O)[C@H](CCCCN)NC(=O)[C@H](CC(C)C)NC(=O)[C@@H](N)Cc1c[nH]c2ccccc12)C(=O)O [WLKGI] (H-WLKGI-OH; N-terminus and C-terminus assumed)
cellular toxicity (relative cell number) [3]: No cellular toxicity

Compound: CC1=C(/C=C/C(C)=C/C=C/C(C)=C/C(=O)O)C(C)(C)CCC1 [retinoic acid]
relative melanin content, cell pellet (MeWo cells [4]): about 125 % of the negative control group | relative melanin content, cell culture supernatant (MeWo cells [5]; [7]): about 100% | relative melanin content, cell pellet (MeWo cells [5]; [7]): about 90% | relative melanin content, cell pellet (MeWo cells [5]; 14 day treatment, Peptide 14 3.12 μM or retinoic acid 2 μM with 25 μM IBMX, positive control 25 μM IBMX, normalized to cell number and negative control): about 130% | relative melanin content, cell culture supernatant (MeWo cells [5]; 14 day treatment, positive control 25 μM IBMX): about 50%

relative cellular senescence (SA-B-galactosidase staining) vs untreated control [6]: senotherapeutic effects
Compound: KLKGILRGAA [Peptide 15]

relative cellular senescence (SA-B-galactosidase staining) vs untreated control [6]: senotherapeutic effects
Compound: WLKGILREAA [Peptide 16]
